Laboratory results published in patent publication US9365583B2, “Substituted pyrazoles and uses thereof” (Genentech, Inc., priority 2013, dated 2016).

Target: T1, N-terminally GST-tagged DLK (catalytic domain amino acid 1-520) (Homo sapiens, UniProt Q12852)
T1 construct: N-terminally GST-tagged DLK (catalytic domain amino acid 1-520); purchased Carna Bioscience
T1 sequence (Q12852 1-520): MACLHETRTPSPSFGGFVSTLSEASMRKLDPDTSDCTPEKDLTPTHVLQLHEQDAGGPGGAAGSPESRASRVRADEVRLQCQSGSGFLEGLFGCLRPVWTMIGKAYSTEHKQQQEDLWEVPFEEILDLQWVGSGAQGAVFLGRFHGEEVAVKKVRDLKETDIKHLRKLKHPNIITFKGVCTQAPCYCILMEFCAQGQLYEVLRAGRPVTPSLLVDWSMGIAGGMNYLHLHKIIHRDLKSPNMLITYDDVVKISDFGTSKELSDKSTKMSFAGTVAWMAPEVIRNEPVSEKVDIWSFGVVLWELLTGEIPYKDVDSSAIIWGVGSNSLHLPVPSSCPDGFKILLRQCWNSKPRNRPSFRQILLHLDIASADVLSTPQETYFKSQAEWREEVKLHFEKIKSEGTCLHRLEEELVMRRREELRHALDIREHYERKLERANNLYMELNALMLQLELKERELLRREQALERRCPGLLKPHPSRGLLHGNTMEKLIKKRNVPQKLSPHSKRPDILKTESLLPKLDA
Assay: DLK TR-FRET inhibition assay
Type: biochemical
Conditions: 5 nM GST-DLK, 40 nM HIS-MKK4 K131M substrate, 30 μM ATP, 60 minutes at ambient temperature
Method: DLK TR-FRET inhibition assay: DLK kinase reactions (20 μL) containing 5 nM N-terminally GST-tagged DLK (catalytic domain amino acid 1-520) (Carna Bioscience), 40 nM N-terminally HIS-tagged MKK4 K131M substrate, and 30 μM ATP in kinase reaction buffer (50 mM HEPES, pH 7.5, 0.01% Triton X-100, 0.01% Bovine γ-Globulins, 2 mM DTT, 10 mM MgCl2 and 1 mM EGTA), and testing compound 1:3 serial diluted starting at 20 uM were incubated at ambient temperature for 60 minutes in 384 well OptiPlate (Perkin Elmer). To quench kinase reactions and detect phosphorylated MKK4, 15 μL of TR-FRET antibody mixture containing 2 nM anti-phosphorylated MKK4 labeled with Europium cryptate (Cisbio) and 23 nM anti-HIS labeled with D2 (Cisbio) in detection buffer (25 mM Tris pH 7.5, 100 mM NaCl, 100 mM EDTA, 0.01% Tween-20, and 200 mM KF) was added to the reaction mixture. The detection mixture was incubated for 3 hours at ambient temperature and the TR-FRET was detected with an EnVision multilabel plate reader (Perkin-Elmer) using the LANCE/DELFIA Dual Enh label from Perkin-Elmer (excitation filter: UV2 (TRF) 320 and emission filters: APC 665 and Europium 615).

Ki	Compound
2.26 nM	3-(difluoromethoxy)-5-(5- ((1R,3r,5S,6r)-3-(3-fluoroazetidin-1- yl)bicyclo[3.1.0]hexan-6-yl)-1- isopropyl-1H-pyrazol-3-yl) pyridin-2-amine [compound 60]
1.77 nM	5-(1-isopropyl-5-((1R,3r,5S,6R)- 3-((R)-2-methylmorpholino) bicyclo[3.1.0]hexan-6-yl)-1H- pyrazol-3-yl)-3-(trifluoromethoxy) pyridin-2-amine [compound 12]
2.06 nM	5-(1-isopropyl-5-((1R,3r,5S,6R)- 3-((R)-2-methylmorpholino) bicyclo[3.1.0]hexan-6-yl)-1H- pyrazol-3-yl)-3-(trifluoromethyl) pyridin-2-amine [compound 2]
1.87 nM	5-(1-isopropyl-5-((1R,3s,5S,6R)- 3-((R)-2-methylmorpholino) bicyclo[3.1.0]hexan-6-yl)-1H- pyrazol-3-yl)-3-(trifluoromethoxy) pyridin-2-amine [compound 11]
2.28 nM	5-(1-isopropyl-5-((1R,3s,5S,6R)- 3-((R)-2-methylmorpholino) bicyclo[3.1.0]hexan-6-yl)-1H- pyrazol-3-yl)-3-(trifluoromethyl) pyridin-2-amine [compound 1]
2.1 nM	CC(C)n1nc(-c2cnc(N)c(OC(F)F)c2)cc1[C@H]1[C@@H]2CC(F)(CN(C)C)C[C@@H]21 (mixture of isomers) [compound 178, 3-(difluoromethoxy)-5-(5-((1R, 5S,6r)-3-((dimethylamino)methyl)-3-fluorobicyclo[3.1.0]hexan-6-yl)-1-isopropyl-1H-pyrazol-3-yl)pyridin-2-amine]
13.5 nM	CC(C)n1nc(-c2cnc(N)c(C(F)(F)F)c2)cc1[C@@H]1[C@H]2CC3C(OCCN3C)[C@H]21 (mixture of isomers) [compound 156, (±)-5-(1-isopropyl-5-(4-methyl-octahydro-2H-cyclopropa[4,5]cyclopenta[1,2-b][1,4]oxazin-6-yl)-1H-pyrazol-3-yl)-3-(trifluoromethyl)pyridin-2-amine]
2.8 nM	CC(C)n1nc(-c2cnc(N)c(OC(F)F)c2)cc1[C@H]1[C@@H]2C[C@H]3CN(C)C[C@H]3[C@@H]21 (racemic) [compound 163, (±)-3-(difluoromethoxy)-5-(1-isopropyl-5-((3aS,3bR,4S,4aR,5aR)-2-methyloctahydro-1H-cyclopropa[3,4]cyclopenta[1,2-c]pyrrol-4-yl)-1H-pyrazol-3-yl) pyridin-2-amine]
12.9 nM	CC(C)n1nc(-c2cnc(N)c(C(F)(F)F)c2)cc1[C@@H]1[C@H]2CC[C@@H](N3CCOCC3)[C@H]21 (single isomer, unassigned) [compound 138, 5-(1-isopropyl-5-(2-morpholinobicyclo[3.1.0]hexan-6-yl)-1H-pyrazol-3-yl)-3-(trifluoromethyl) pyridin-2-amine]
65.7 nM	CC(C)n1nc(-c2cnc(N)c(C(F)(F)F)c2)cc1[C@@H]1[C@H]2CC[C@@H](N3CCOCC3)[C@H]21 (single isomer, unassigned) [compound 139, 5-(1-isopropyl-5-(2-morpholinobicyclo[3.1.0]hexan-6-yl)-1H-pyrazol-3-yl)-3-(trifluoromethyl) pyridin-2-amine]
62.2 nM	CC(C)n1nc(-c2cnc(N)c(C(F)(F)F)c2)cc1[C@@H]1[C@H]2CC[C@H](O)[C@H]21 (single isomer, unassigned) [compound 142, 6-(3-(6-amino-5-trifluoromethylpyridin-3-yl)-1-isopropyl-1H-pyrazol-5-yl)bicyclo[3.1.0]hexan-2-ol]
31.9 nM	CC(C)n1nc(-c2cnc(N)c(C(F)(F)F)c2)cc1[C@@H]1[C@H]2CC[C@H](O)[C@H]21 (single isomer, unassigned) [compound 143, 6-(3-(6-amino-5-trifluoromethylpyridin-3-yl)-1-isopropyl-1H-pyrazol-5-yl)bicyclo[3.1.0]hexan-2-ol]
4.1 nM	CC(C)n1nc(-c2cnc(N)c(OC(F)F)c2)cc1[C@H]1[C@@H]2CC(N3CCOCC(F)C3)C[C@@H]21 (single isomer, unassigned) [compound 169]
5.4 nM	COCC1(F)CCN(C2C[C@@H]3C(c4cc(-c5cnc(N)c(OC(F)F)c5)nn4C(C)C)[C@@H]3C2)C1 (single isomer, unassigned) [compound 171]
4.2 nM	CC(C)n1nc(-c2cnc(N)c(OC(F)F)c2)cc1C1[C@H]2CC(N3CCOCC(F)C3)C[C@@H]12 (single isomer, unassigned) [compound 172]
4.5 nM	CC(C)n1nc(-c2cnc(N)c(OC(F)F)c2)cc1C1[C@H]2CC(N3CCOCC(F)C3)C[C@@H]12 (single isomer, unassigned) [compound 173]

Ki	Compound
5.2 nM	COCC1(F)CCN(C2C[C@@H]3C(c4cc(-c5cnc(N)c(OC(F)F)c5)nn4C(C)C)[C@@H]3C2)C1 (single isomer, unassigned) [compound 174]
5.5 nM	CC(C)n1nc(-c2cnc(N)c(OC(F)F)c2)cc1C1[C@H]2CC(N3CCOCC(F)C3)C[C@@H]12 (single isomer, unassigned) [compound 175]
2.1 nM	CC(C)n1nc(-c2cnc(N)c(C(F)(F)F)c2)cc1[C@H]1[C@@H]2CC(N3CCN4CCOCC4C3)C[C@@H]21 (single isomer, unassigned) [compound 184]
4.8 nM	CC(C)n1nc(-c2cnc(N)c(C(F)(F)F)c2)cc1[C@H]1[C@@H]2CC(C#N)C[C@@H]21 (single isomer, unassigned) [compound 190]
7.8 nM	CC(C)n1nc(-c2cnc(N)c(C(F)(F)F)c2)cc1[C@H]1[C@@H]2CC(C#N)C[C@@H]21 (single isomer, unassigned) [compound 191]
3.4 nM	CC(C)n1nc(-c2cnc(N)c(C(F)(F)F)c2)cc1[C@H]1[C@@H]2CC(N3CCN4CCOCC4C3)C[C@@H]21 (single isomer, unassigned) [compound 196]
1.3 nM	CC(C)n1nc(-c2cnc(N)c(C(F)(F)F)c2)cc1[C@H]1[C@@H]2CC3(C[C@@H]21)CN(C)CCO3 (single isomer, unassigned) [compound 197]
0.9 nM	CC(C)n1nc(-c2cnc(N)c(OC(F)F)c2)cc1[C@H]1[C@@H]2C[C@@H](N3CCN4CCCC4C3)C[C@@H]21 (single isomer, unassigned) [compound 258]
0.7 nM	CC(C)n1nc(-c2cnc(N)c(OC(F)F)c2)cc1[C@H]1[C@@H]2C[C@@H](N3CCN4CCCC4C3)C[C@@H]21 (single isomer, unassigned) [compound 259]
1.2 nM	CC(C)n1nc(-c2cnc(N)c(C(F)(F)F)c2)cc1[C@H]1[C@@H]2C[C@@H](N3CCN4CCCC4C3)C[C@@H]21 (single isomer, unassigned) [compound 261]
1 nM	CC(C)n1nc(-c2cnc(N)c(C(F)(F)F)c2)cc1[C@H]1[C@@H]2C[C@@H](N3CCN4CCCC4C3)C[C@@H]21 (single isomer, unassigned) [compound 263]
2.8 nM	CC(C)n1nc(-c2cnc(N)c(C(F)(F)F)c2)cc1[C@H]1[C@@H]2CC(N3CC4COCC4C3)C[C@@H]21 (single isomer, unassigned) [compound 270]
2.3 nM	CC(C)n1nc(-c2cnc(N)c(C(F)(F)F)c2)cc1[C@H]1[C@@H]2CC(N3CC4COCC4C3)C[C@@H]21 (single isomer, unassigned) [compound 277]
4.51 nM	CC(C)n1nc(-c2cnc(N)c(OC(F)F)c2)cc1[C@H]1[C@@H]2C[C@H](O)C[C@@H]21 [compound 4, (1R,3r,5S,6r)-6-(3-(6-amino-5-(difluoromethoxy)pyridin-3-yl)-1-isopropyl-1H-pyrazol-5-yl) bicyclo[3.1.0]hexan-3-ol]
18.8 nM	CC(C)n1nc(-c2cnc(N)c(C(F)(F)F)c2)cc1[C@H]1[C@@H]2C[C@@H](O)C[C@@H]21 [compound 5, (1R,3s,5S,6r)-6-(3-(6-amino-5-(trifluoromethyl)pyridin-3-yl)-1-isopropyl-1H-pyrazol-5-yl) bicyclo[3.1.0]hexan-3-ol]
14.4 nM	CC(C)n1nc(-c2cnc(N)c(OC(F)F)c2)cc1[C@H]1[C@@H]2C[C@@H](O)C[C@@H]21 [compound 6, (1R,3s,5S,6r)-6-(3-(6-amino-5-(difluoromethoxy)pyridin-3-yl)-1-isopropyl-1H-pyrazol-5-yl) bicyclo[3.1.0]hexan-3-ol]
